Measured values from the NIST ThermoML archive (doi:10.1016/j.jct.2018.11.014).
± gives the expanded uncertainty stated by the source.

Test: molar heat capacity at constant pressure
Settings: 101.33 kPa, Crystal, Vacuum adiabatic calorimetry

O=C(CO)[C@@H](O)[C@H](O)[C@H](O)CO [D-fructose]
Settings	molar heat capacity at constant pressure [J/K/mol]
10 K	0.91 ± 0.02
14.06 K	2.815 ± 0.037
14.48 K	3.13 ± 0.04
14.92 K	3.379 ± 0.043
15.36 K	3.634 ± 0.045
15.81 K	3.919 ± 0.049
16.27 K	4.218 ± 0.052
16.77 K	4.66 ± 0.056
17.29 K	5.05 ± 0.06
17.75 K	5.334 ± 0.063
18.24 K	5.753 ± 0.067
18.76 K	6.186 ± 0.072
19.31 K	6.585 ± 0.076
19.89 K	7.065 ± 0.081
20 K	7.19 ± 0.08
20.47 K	7.626 ± 0.086
21.03 K	8.082 ± 0.091
21.55 K	8.514 ± 0.095
22.09 K	9.015 ± 0.1
22.64 K	9.566 ± 0.11
23.22 K	10.1 ± 0.11
23.84 K	10.61 ± 0.12
24.41 K	11.21 ± 0.12
24.96 K	11.67 ± 0.13
25.84 K	12.67 ± 0.14
26.71 K	13.5 ± 0.14
27.31 K	14.07 ± 0.15
28.19 K	14.91 ± 0.16
29.03 K	15.7 ± 0.17
29.58 K	16.16 ± 0.17
30 K	16.66 ± 0.18
30.14 K	16.84 ± 0.18
30.73 K	17.43 ± 0.18
31.35 K	18.05 ± 0.19
31.98 K	18.53 ± 0.19
32.62 K	19.19 ± 0.2
33.28 K	19.89 ± 0.21
33.96 K	20.59 ± 0.21
34.65 K	21.26 ± 0.22
35.36 K	21.95 ± 0.23
36.07 K	22.67 ± 0.23
36.78 K	23.42 ± 0.24
37.5 K	24.11 ± 0.25
38.21 K	24.83 ± 0.26
38.91 K	25.52 ± 0.26
39.6 K	26.21 ± 0.27
40 K	26.59 ± 0.27
40.28 K	26.89 ± 0.28
40.99 K	27.59 ± 0.28
41.73 K	28.3 ± 0.29
42.48 K	29.02 ± 0.3
43.26 K	29.78 ± 0.31
44.03 K	30.54 ± 0.31
44.8 K	31.29 ± 0.32
45.6 K	32.07 ± 0.33
46.41 K	32.85 ± 0.34
47.23 K	33.62 ± 0.34
48.05 K	34.43 ± 0.35
48.87 K	35.18 ± 0.36
49.66 K	35.98 ± 0.37
50 K	36.27 ± 0.37
50.46 K	36.72 ± 0.38
51.3 K	37.5 ± 0.38
52.17 K	38.33 ± 0.39
53.08 K	39.16 ± 0.4
54 K	40.03 ± 0.41
54.92 K	40.88 ± 0.42
55.87 K	41.75 ± 0.43
56.84 K	42.65 ± 0.44
57.8 K	43.54 ± 0.45
58.75 K	44.39 ± 0.45
59.68 K	45.25 ± 0.46
60 K	45.54 ± 0.47
60.61 K	46.09 ± 0.47
61.55 K	46.94 ± 0.48
62.48 K	47.76 ± 0.49
63.4 K	48.61 ± 0.5
64.31 K	49.43 ± 0.5
65.22 K	50.22 ± 0.51
66.18 K	51.08 ± 0.52
67.16 K	51.94 ± 0.53
68.22 K	52.9 ± 0.54
69.33 K	53.88 ± 0.55
70 K	54.46 ± 0.55
70.43 K	54.83 ± 0.56
71.5 K	55.79 ± 0.57
72.63 K	56.77 ± 0.58
73.81 K	57.78 ± 0.59
74.97 K	58.8 ± 0.6
76.11 K	59.77 ± 0.61
77.23 K	60.74 ± 0.62
78.4 K	61.72 ± 0.63
79.61 K	62.76 ± 0.64
80 K	63.1 ± 0.64
80.81 K	63.77 ± 0.65
81.98 K	64.8 ± 0.66
83.14 K	65.76 ± 0.67
84.34 K	66.77 ± 0.68
85.59 K	67.84 ± 0.69
86.82 K	68.83 ± 0.7
88.03 K	69.88 ± 0.71
89.22 K	70.89 ± 0.72
90 K	71.52 ± 0.74
90.46 K	71.89 ± 0.74
91.74 K	72.99 ± 0.76
93 K	73.99 ± 0.77
94.24 K	75.03 ± 0.78
95.47 K	76.03 ± 0.79
96.74 K	77.1 ± 0.8
98.05 K	78.13 ± 0.81
99.34 K	79.2 ± 0.82
100 K	79.73 ± 0.82
100.61 K	80.23 ± 0.83
101.88 K	81.25 ± 0.84
103.17 K	82.3 ± 0.85
104.51 K	83.38 ± 0.86
105.83 K	84.42 ± 0.87
107.14 K	85.5 ± 0.88
108.44 K	86.51 ± 0.89
109.77 K	87.55 ± 0.9
110 K	87.77 ± 0.9
111.13 K	88.69 ± 0.91
112.49 K	89.72 ± 0.92
113.83 K	90.79 ± 0.93
115.15 K	91.82 ± 0.94
